# Source: patent US10633382B2, “Imidazopyrazinones, pyrazolopyrimidinones and pyrazolopyridinones as PDE1 inhibitors” (H. Lundbeck A/S, priority 2016, dated 2020)
# Legend:
# Type in all cases: biochemical
# [1] = molecular target: PDE1B (Homo sapiens, UniProt Q01064); assay: PDE1 inhibition assay (PDE1B); settings: 15 nM tritium labelled cAMP, SPA
# Procedure: (§1) PDE1A, PDE1B and PDE1C assays were performed as follows: the assays were performed in 60 μL samples containing a fixed amount of the PDE1 enzyme (sufficient to convert 20-25% of the cyclic nucleotide substrate), a buffer (50 mM HEPES (4-(2-hydroxyethyl)-1-piperazineethanesulfonic acid) pH 7.6; 10 mM MgCl2; 0.02% Tween20), 0.1 mg/ml BSA (bovine serum albumin), 15 nM tritium labelled cAMP and varying amounts of inhibitors. Reactions were initiated by addition of the cyclic nucleotide substrate, and reactions were allowed to proceed for 1 hr at room temperature before being terminated through mixing with 20 μL (0.2 mg) yttrium silicate SPA beads (PerkinElmer). The beads were allowed to settle for 1 hour in the dark before the plates were counted in a Wallac 1450 Microbeta counter. The measured signals were converted to activity relative to an uninhibited control (100%) and IC50 values were calculated using XlFit (model 205, IDBS).
# [2] = molecular target: PDE1C (Homo sapiens, UniProt Q14123); assay: PDE1 inhibition assay (PDE1C); settings: 15 nM tritium labelled cAMP, SPA
# Procedure: as §1
# [3] = molecular target: PDE9 (Homo sapiens, UniProt O76083); assay: PDE9 inhibition assay; settings: for inhibition at 10 µM / PDE9 Inhibition at 10 μM (%): 10 μM of inhibitor
# Procedure: A PDE9 assay may for example, be performed as follows: The assay is performed in 60 μL samples containing a fixed amount of the relevant PDE enzyme (sufficient to convert 20-25% of the cyclic nucleotide substrate), a buffer (50 mM HEPES pH 7.6; 10 mM MgCl2; 0.02% Tween20), 0.1 mg/ml BSA, 225 pCi of ^3H-labelled cyclic nucleotide substrate, tritium labeled cAMP to a final concentration of 5 nM and varying amounts of inhibitors. Reactions are initiated by addition of the cyclic nucleotide substrate, and reactions are allowed to proceed for one hr at room temperature before being terminated through mixing with 15 μL 8 mg/mL yttrium silicate SPA beads (Amersham). The beads are allowed to settle for one hr in the dark before the plates are counted in a Wallac 1450 Microbeta counter. The measured signal can be converted to activity relative to an uninhibited control (100%) and IC50 values can be calculated using the Xlfit extension to EXCEL.
# In the context of the present invention the assay was performed in 60 μL assay buffer (50 mM HEPES pH 7.6; 10 mM MgCl2; 0.02% Tween20) containing enough PDE9 to convert 20-25% of 10 nM ^3H-cAMP, and […] 10 μM of inhibitor. Following 1 hr incubation the reactions were terminated by addition of 15 μL 8 mg/mL yttrium silicate SPA beads (Amersham). The beads were allowed to settle for one hr in the dark before the plates were counted in a Wallac 1450 Microbeta counter.
# [4] = molecular target: PDE1A (Homo sapiens, UniProt P54750); assay: PDE1 inhibition assay (PDE1A); settings: 15 nM tritium labelled cAMP, SPA
# Procedure: as §1
# Chain of PDE1C (Q14123 whole entry): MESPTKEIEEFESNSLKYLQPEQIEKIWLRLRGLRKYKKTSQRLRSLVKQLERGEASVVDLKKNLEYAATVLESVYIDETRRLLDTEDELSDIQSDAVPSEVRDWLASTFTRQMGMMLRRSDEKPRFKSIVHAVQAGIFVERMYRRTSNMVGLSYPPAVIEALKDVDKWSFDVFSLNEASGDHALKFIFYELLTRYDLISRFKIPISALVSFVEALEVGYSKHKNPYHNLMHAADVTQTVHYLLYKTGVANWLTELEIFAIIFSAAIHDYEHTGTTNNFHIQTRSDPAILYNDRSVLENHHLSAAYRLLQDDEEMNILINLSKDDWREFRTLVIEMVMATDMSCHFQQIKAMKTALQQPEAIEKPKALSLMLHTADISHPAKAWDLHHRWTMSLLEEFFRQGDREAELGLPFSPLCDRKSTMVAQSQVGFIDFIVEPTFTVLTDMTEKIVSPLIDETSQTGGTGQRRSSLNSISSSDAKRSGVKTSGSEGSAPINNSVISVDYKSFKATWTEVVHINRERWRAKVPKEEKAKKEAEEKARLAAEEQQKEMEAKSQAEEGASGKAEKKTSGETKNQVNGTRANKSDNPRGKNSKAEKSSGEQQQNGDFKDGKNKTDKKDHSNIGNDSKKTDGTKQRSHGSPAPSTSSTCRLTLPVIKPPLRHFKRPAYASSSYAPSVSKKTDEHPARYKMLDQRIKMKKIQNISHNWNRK
# Chain of PDE1A (P54750 whole entry): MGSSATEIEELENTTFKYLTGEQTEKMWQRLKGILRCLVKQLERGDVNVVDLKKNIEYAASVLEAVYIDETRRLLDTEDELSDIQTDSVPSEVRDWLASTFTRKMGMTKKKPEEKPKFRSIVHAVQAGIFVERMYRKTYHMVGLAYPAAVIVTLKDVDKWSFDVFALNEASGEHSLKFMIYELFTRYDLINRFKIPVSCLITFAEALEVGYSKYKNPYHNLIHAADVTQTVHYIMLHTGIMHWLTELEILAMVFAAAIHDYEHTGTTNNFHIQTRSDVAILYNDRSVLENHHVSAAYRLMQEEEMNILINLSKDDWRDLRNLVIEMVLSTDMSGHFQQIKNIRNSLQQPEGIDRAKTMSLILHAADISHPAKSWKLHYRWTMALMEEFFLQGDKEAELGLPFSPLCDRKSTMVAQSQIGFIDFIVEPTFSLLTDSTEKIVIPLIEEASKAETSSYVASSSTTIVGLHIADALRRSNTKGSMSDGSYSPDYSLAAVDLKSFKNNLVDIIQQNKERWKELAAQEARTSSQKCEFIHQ
# Chain of PDE1B (Q01064 whole entry): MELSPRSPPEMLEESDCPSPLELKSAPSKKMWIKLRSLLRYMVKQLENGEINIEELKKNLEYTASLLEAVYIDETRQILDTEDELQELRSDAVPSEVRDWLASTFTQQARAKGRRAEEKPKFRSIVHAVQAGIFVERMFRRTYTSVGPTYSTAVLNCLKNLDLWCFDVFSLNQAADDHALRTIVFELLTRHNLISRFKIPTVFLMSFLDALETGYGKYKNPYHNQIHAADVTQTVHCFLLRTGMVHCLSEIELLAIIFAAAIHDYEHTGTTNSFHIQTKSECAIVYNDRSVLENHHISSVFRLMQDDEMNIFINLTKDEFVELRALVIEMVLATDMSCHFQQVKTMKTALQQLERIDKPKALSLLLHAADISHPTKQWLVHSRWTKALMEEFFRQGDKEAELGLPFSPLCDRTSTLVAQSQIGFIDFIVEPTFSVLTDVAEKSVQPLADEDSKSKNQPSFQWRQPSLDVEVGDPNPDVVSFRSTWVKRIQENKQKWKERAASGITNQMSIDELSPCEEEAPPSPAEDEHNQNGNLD
# Chain of PDE9 (O76083 whole entry): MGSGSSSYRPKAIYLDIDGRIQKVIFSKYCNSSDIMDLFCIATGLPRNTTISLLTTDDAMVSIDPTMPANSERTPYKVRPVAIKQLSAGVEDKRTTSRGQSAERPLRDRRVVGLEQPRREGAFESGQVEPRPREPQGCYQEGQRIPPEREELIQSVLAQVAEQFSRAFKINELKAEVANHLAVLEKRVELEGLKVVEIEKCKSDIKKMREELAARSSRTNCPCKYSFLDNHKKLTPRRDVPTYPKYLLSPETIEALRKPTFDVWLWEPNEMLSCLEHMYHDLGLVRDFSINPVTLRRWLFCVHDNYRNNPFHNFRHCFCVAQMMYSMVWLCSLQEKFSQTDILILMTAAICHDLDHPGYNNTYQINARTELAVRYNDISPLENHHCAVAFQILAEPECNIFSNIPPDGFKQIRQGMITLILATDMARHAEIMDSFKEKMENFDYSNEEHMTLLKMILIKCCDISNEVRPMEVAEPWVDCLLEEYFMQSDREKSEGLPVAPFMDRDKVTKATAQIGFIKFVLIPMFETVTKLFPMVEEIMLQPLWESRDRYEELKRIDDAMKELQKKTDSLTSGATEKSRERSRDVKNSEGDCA
Compound,IC50 [1] [nM],IC50 [2] [nM],IC50 ([3]; printed in the PDE9 inhibition column) [nM],IC50 [4] [nM],inhibition at 10 µM [3] [%],PDE9 Inhibition at 10 μM (%) [3] [%]
"CC1OCCC1c1ncc2c(=O)n(C)c(Cc3ccc(-c4cccc(F)n4)cc3)cn12 (single isomer, unassigned; isomer 1) [Example 29, 6-(4-(6-fluoropyridin-2-yl)benzyl)-7-methyl-3-(2-methyltetrahydrofuran-3-yl)imidazo[1,5-a]pyrazin-8(7H)-one, Isomer 1]",24,104,,61,,4
"Cn1c(Cc2ccc(-c3ccccn3)cc2)cc2c(cnn2C2CCOCC2)c1=O [Example 6, 5-methyl-6-[[4-(2-pyridyl)phenyl]methyl]-1-tetrahydropyran-4-yl-pyrazolo[4,3-c]pyridin-4-one]",25,240,,160,4,
"Cn1c(Cc2ccc(-c3cccc(F)n3)cc2)cn2c(C3CCOC3)ncc2c1=O (single isomer, unassigned; isomer 2) [Example 28, 6-(4-(6-fluoropyridin-2-yl)benzyl)-7-methyl-3-(tetrahydrofuran-3-yl)imidazo[1,5-a]pyrazin-8(7H)-one, Isomer 2]",26,111,,71,,6
"Cc1cccc(-c2ccc(Cc3nc4c(cnn4C4CCOCC4)c(=O)n3C)cc2)n1 [Example 3, 5-methyl-6-[[4-(6-methyl-2-pyridyl)phenyl]methyl]-1-tetrahydropyran-4-yl-pyrazolo[3,4-d]pyrimidin-4-one]",93,660,,350,25,

# Compounds with a lower IC50 [1], results first:
IC50 [1] [nM],IC50 [2] [nM],IC50 ([3]; printed in the PDE9 inhibition column) [nM],IC50 [4] [nM],inhibition at 10 µM [3] [%],PDE9 Inhibition at 10 μM (%) [3] [%],Compound
23,238,,117,9,,"Cc1ccccc1-c1ccc(Cc2cn3c(C4CCOCC4)ncc3c(=O)n2C)cc1 [Example 18, 7-methyl-6-[[4-(o-tolyl)phenyl]methyl]-3-tetrahydropyran-4-yl-imidazo[1,5-a]pyrazin-8-one]"
16,96,,57,4,,"Cn1c(Cc2ccc(-c3cccc(F)n3)cc2)cn2c(C3CCOC3)ncc2c1=O (single isomer, unassigned; isomer 1) [Example 27, 6-(4-(6-fluoropyridin-2-yl)benzyl)-7-methyl-3-(tetrahydrofuran-3-yl)imidazo[1,5-a]pyrazin-8(7H)-one, Isomer 1]"
14,87,,58,6,,"Cn1c(Cc2ccc(-c3cccc(C(F)F)n3)cc2)cn2c(C3CCOCC3)ncc2c1=O [Example 15, 6-[[4-[6-(difluoromethyl)-2-pyridyl]phenyl]methyl]-7-methyl-3-tetrahydropyran-4-yl-imidazo[1,5-a]pyrazin-8-one]"
13,93,,36,13,,"CC(C)c1ncc2c(=O)n(C)c(Cc3ccc(-c4cccc(F)n4)cc3)cn12 [Example 21, 6-[[4-(6-fluoro-2-pyridyl)phenyl]methyl]-3-isopropyl-7-methyl-imidazo[1,5-a]pyrazin-8-one]"
6,22,180,17,,,"O=c1[nH]c(Cc2ccc(-c3ccccn3)cc2)cn2c(C3CCOCC3)ncc12 [Example 10, 6-[[4-(2-pyridyl)phenyl]methyl]-3-tetrahydropyran-4-yl-7H-imidazo[1,5-a]pyrazin-8-one]"
3.5,120,,30,-10,,"Cn1c(Cc2ccc(-c3ccccn3)cc2)cn2c(C3CCOCC3)ncc2c1=O [Example 11, 7-methyl-6-[[4-(2-pyridyl)phenyl]methyl]-3-tetrahydropyran-4-yl-imidazo[1,5-a]pyrazin-8-one]"
